According to patent US12286632B2, “Rationally-designed synthetic peptide shuttle agents for delivering polypeptide cargos from an extracellular space to the cytosol and/or nucleus of a target eukaryotic cell, uses thereof, methods and kits relating to same” (Feldan Bio Inc., priority 2016, dated 2025):

Assays:
[1] = tested on: Balb3T3 cells; assay: GFP-NLS transduction in different adherent and suspension cells (flow cytometry, Pos cells % and viability %); type: cell-based; conditions: Protocol B, 35 μM shuttle, 5 μM GFP-NLS, 10 seconds
Description: (§1) The media in wells was removed, cells were washed once with PBS previously warmed at 37° C., and the shuttle agent/cargo mixture was then added to cover all cells for the desired length of time. The shuttle agent/cargo mixture in wells was removed, the cells were washed once with PBS, and fresh complete medium was added. Before analysis, the cells were washed once with PBS and fresh complete medium was added.
(§2) The ability of the shuttle agent His-CM18-PTD4 to deliver GFP-NLS to the nuclei of different adherent and suspension cells using Protocols B (adherent cells) or C (suspension cells) as described in Example 9.1 was examined. The cell lines tested included: HeLa, Balb3T3, HEK 293T, CHO, NIH3T3, Myoblasts, Jurkat, THP-1, CA46, and HT2 cells, which were cultured as described in Example 1. GFP-NLS (5 μM; see Example 5.1) was co-incubated with 35 μM of His-CM18-PTD4 and exposed to adherent cells for 10 seconds (Protocol B), or was co-incubated with 5 μM of His-CM18-PTD4 and exposed to suspension cells for 15 seconds (Protocol C). […] “Pos cells (%)” is the mean percentages of all cells that emanate a GFP signal.

[2] = tested on: NIH3T3 cells; assay: as above; type: cell-based; conditions: Protocol B, 35 μM shuttle, 5 μM GFP-NLS, 10 seconds
Description: as §1, §2

[3] = tested on: 293T, Balb3T3, CHO, Myoblasts, Jurkat, CA46, HT2 and NIH3T3 cells; assay: GFP-NLS transduction in several adherent and suspension cells, visualization by microscopy; type: cell-based; conditions: 35 μM, 10 seconds (adherent) or 5 μM, 15 seconds (suspension); GFP-NLS 5 μM
Description: GFP-NLS recombinant protein (5 μM; see Example 5.1) was co-incubated with 35 μM of His-CM18-PTD4 and exposed to adherent cells for 10 seconds using […], or was co-incubated with 5 μM of His-CM18-PTD4 and exposed to suspension cells for 15 seconds using Protocol B, as described in Example 9.1. After washing the cells, GFP fluorescence was visualized by bright field and fluorescence microscopy. Sample images captured at 10× magnifications showing GFP fluorescence are shown for 293T (FIG. 37A), Balb3T3 (FIG. 37B), CHO (FIG. 37C), Myoblasts (FIG. 370), Jurkat (FIG. 37E), CA46 (FIG. 37F), HT2 (FIG. 37G), and NIH3T3 (FIG. 37H) cells. The insets show corresponding flow cytometry results performed as described in Example 3.3, indicating the percentage of GFP-NLS-positive cells.
Nuclear localization of the GFP-NLS was further confirmed in fixed and permeabilized myoblasts using cell immuno-labelling as described in Example 3.2a. GFP-NLS was labeled using a primary mouse monoclonal anti-GFP antibody (Feldan, #A017) and a secondary goat anti-mouse Alexa™-594 antibody (Abcam #150116). Nuclei were labelled with DAPI. Sample results for primary human myoblast cells are shown in FIG. 38, in which GFP immuno-labelling is shown in FIG. 38A, and an overlay of the GFP immuno-labelling and DAPI labelling is shown in FIG. 38B.

[4] = tested on: THP-1 cells; assay: GFP-NLS protein transduction assay (flow cytometry: Pos cells %, viability %, relative fluorescence intensity; microscopy)
[5] = tested on: PPIB gene; assay: T7E1 DNA cleavage assay after CRISPR/Cas9-NLS delivery, HeLa cells; type: cell-based, Human; conditions: shuttle 10 μM; Cas9-NLS 25 nM; HeLa cells 16 h, medium without serum
Description: The T7 endonuclease I (T7E1) can be used to detect on-target CRISPR/Cas genome editing events in cultured cells. As an overview, genomic DNA from target cells is amplified by PCR. The PCR products are then denatured and reannealed to allow heteroduplex formation between wild-type DNA and CRISPR/Cas-mutated DNA. T7E1, which recognizes and cleaves mismatched DNA, is used to digest the heteroduplexes. The resulting cleaved and full-length PCR products are visualized by gel electrophoresis.
The T7E1 assay was performed with the Edit-R™ Synthetic crRNA Positive Controls (Dharmacon #U-007000-05) and the T7 Endonuclease I (NEB, Cat #M0302S). After the delivery of the CRISPR/Cas complex, cells were lysed in 100 μL of Phusion™ High-Fidelity DNA polymerase (NEB #M0530S) laboratory with additives. The cells were incubated for 15-30 minutes at 56° C., followed by deactivation for 5 minutes at 96° C. The plate was briefly centrifuged to collect the liquid at bottom of the wells. 50-μL PCR samples were set up for each sample to be analyzed. The PCR samples were heated to 95° C. for 10 minutes and then slowly (>15 minutes) cooled to room temperature. PCR product (-5 μL) was then separated on an agarose gel (2%) to confirm amplification. 15 μL of each reaction was incubated with T7E1 nuclease for 25 minutes at 37° C. […]

[6] = tested on: Myoblasts; assay: GFP-NLS transduction in different adherent and suspension cells (flow cytometry, Pos cells % and viability %); type: cell-based, Human; conditions: Protocol B, 35 μM shuttle, 5 μM GFP-NLS, 10 seconds
Description: as §1, §2

[7] = tested on: HEK 293T cells; assay: as above; type: cell-based, Human; conditions: Protocol B, 35 μM shuttle, 5 μM GFP-NLS, 10 seconds
Description: as §1, §2

[8] = THP-1, Protocol C, 5 μM shuttle, 5 μM GFP-NLS, 15 seconds

CC[C@H](C)[C@H](NC(=O)[C@H](CCCCN)NC(=O)[C@H](CCCCN)NC(=O)[C@H](Cc1ccccc1)NC(=O)[C@H](CC(C)C)NC(=O)[C@H](CCCCN)NC(=O)[C@H](Cc1c[nH]c2ccccc12)NC(=O)[C@H](CCCCN)NC(=O)[C@H](Cc1c[nH]cn1)NC(=O)[C@H](Cc1c[nH]cn1)NC(=O)[C@H](Cc1c[nH]cn1)NC(=O)[C@H](Cc1c[nH]cn1)NC(=O)[C@H](Cc1c[nH]cn1)NC(=O)[C@@H](N)Cc1c[nH]cn1)C(=O)NCC(=O)N[C@@H](C)C(=O)N[C@H](C(=O)N[C@@H](CC(C)C)C(=O)N[C@@H](CCCCN)C(=O)N[C@H](C(=O)N[C@@H](CC(C)C)C(=O)N[C@H](C(=O)N[C@H](C(=O)NCC(=O)N[C@@H](Cc1ccc(O)cc1)C(=O)N[C@@H](C)C(=O)N[C@@H](CCCNC(=N)N)C(=O)N[C@@H](C)C(=O)N[C@@H](C)C(=O)N[C@@H](C)C(=O)N[C@@H](CCCNC(=N)N)C(=O)N[C@@H](CCC(N)=O)C(=O)N[C@@H](C)C(=O)N[C@@H](CCCNC(=N)N)C(=O)N[C@@H](C)C(=O)O)[C@@H](C)O)[C@@H](C)O)C(C)C)C(C)C [His-CM18-PTD4]
Cell viability (%) (±St. Dev.; n = 3) [1]: 98.4 ± 0.6% | Mean % cells with GFP signal (±St. Dev.; n = 3) [1]: 40.2 ± 3.1% | Cell viability (%) (±St. Dev.; n = 3) [2]: 3.3 ± 5.4% | Mean % cells with GFP signal (±St. Dev.; n = 3) [2]: 35.4 ± 3.9% | GFP-NLS nuclear delivery (microscopy) [3]: successfully delivered to the nucleus of all the tested cells | GFP-NLS intracellular delivery after repeated daily treatments (in words) ([4]; 0.5 or 0.8 μM shuttle, 150 min each day, in the presence of serum): result in intracellular delivery of GFP-NLS | Mean % cells with GFP signal (±St. Dev.; n = 3) ([4]; Protocol C, THP-1, 1 μM shuttle, 5 μM GFP-NLS, incubation 15 sec): 23.7 ± 0.2% | Mean % cells with GFP signal (±St. Dev.; n = 3) ([4]; Protocol C, THP-1, 1 μM shuttle, 5 μM GFP-NLS, incubation 30 sec): 53 ± 0.3% | Mean % cells with GFP signal (±St. Dev.; n = 3) ([4]; Protocol C, THP-1, 1 μM shuttle, 5 μM GFP-NLS, incubation 60 sec): 69.6 ± 4.2% | Mean % cells with GFP signal (±St. Dev.; n = 3) ([4]; Protocol C, THP-1, 1 μM shuttle, 5 μM GFP-NLS, incubation 120 sec): 89 ± 0.8% | Cell viability (%) (±St. Dev.; n = 3) [4, 8]: 64.1 ± 4.5% | Mean % cells with GFP signal (±St. Dev.; n = 3) [4, 8]: 64.1 ± 1.6% | Mean % cells with GFP signal (±St. Dev.; n = 3) ([4]; THP-1, serum, daily 150 min, 0.5 μM shuttle, 5 μM GFP-NLS, 1 day exposure): 12.1 ± 1.5% | Mean % cells with GFP signal (±St. Dev.; n = 3) ([4]; THP-1, serum, daily 150 min, 0.5 μM shuttle, 5 μM GFP-NLS, 3 days exposure): 73.4 ± 1.1% | Mean % cells with GFP signal (±St. Dev.; n = 3) ([4]; THP-1, serum, daily 150 min, 0.8 μM shuttle, 1 μM GFP-NLS, 1 day exposure): 1.6 ± 0.2% | Mean % cells with GFP signal (±St. Dev.; n = 3) ([4]; THP-1, serum, daily 150 min, 0.8 μM shuttle, 1 μM GFP-NLS, 3 days exposure): 6.5 ± 0.9% | Mean % cells with GFP signal (±St. Dev.; n = 3) ([4]; THP-1, serum, daily 150 min, 0.8 μM shuttle, 2.5 μM GFP-NLS, 1 day exposure): 12.2 ± 0.9% | Mean % cells with GFP signal (±St. Dev.; n = 3) ([4]; THP-1, serum, daily 150 min, 0.8 μM shuttle, 2.5 μM GFP-NLS, 3 days exposure): 62.4 ± 3.5% | Mean % cells with GFP signal (±St. Dev.; n = 3) ([4]; Table 9.3, Protocol A, THP-1, shuttle 1 μM, GFP-NLS 5 μM, 1 hour): 14.2 ± 2.2% | Mean % cells with GFP signal (±St. Dev.; n = 3) ([4]; Table 9.3, Protocol C, THP-1, shuttle 0.5 μM, GFP-NLS 5 μM, 15 seconds): 34.9 ± 3.8% | Mean % cells with GFP signal (±St. Dev.; n = 3) ([4]; Table 9.3, Protocol C, THP-1, shuttle 5 μM, GFP-NLS 5 μM, 15 seconds): 64.1 ± 1.6% | GFP-NLS intracellular delivery (microscopy / FACS, in words) ([4]; shuttle 5 μM, GFP-NLS 5 μM, 15 seconds, Protocol C): successfully delivered intracellularly | delivery of functional CRISPR/Cas9 complex, cleavage of genomic PPIB (in words) [5]: successfully deliver a functional CRISPR/Cas9 complex to the nucleus of HeLa cells | Cell viability (%) (±St. Dev.; n = 3) [6]: 23.5 ± 1.1% | Mean % cells with GFP signal (±St. Dev.; n = 3) [6]: 25.6 ± 2.6% | Cell viability (%) (±St. Dev.; n = 3) [7]: 95.3 ± 1.2% | Mean % cells with GFP signal (±St. Dev.; n = 3) [7]: 55.3 ± 0.2%
